These results are taken from article PMC9967674, “Characterization and Functional Analysis of OcomOBP7 in Ophraella communa Lesage” (Insects, 2023).

A word on the Ki: it is a measure of affinity in units of concentration, obtained from inhibition or displacement. Usually IC50 stands for the point on the concentration scale where inhibition reaches its midpoint. Usually Kd stands for a measure of binding affinity in units of concentration.

Assay [1] deals with OcomOBP7. Put plainly: Fluorescence competitive binding assay (1-NPN displacement). Also noted: species or system Ophraella communa. The following applies: 1-NPN 2 μM; for Ki: Ki = [IC50]/(1 + [1-NPN]/K1-NPN), OcomOBP7 2 μM, pH 7.4, read-out: Ki (dissociation constant); for IC50: recombinant OcomOBP7 2 μM, 50 mM Tris-HCl pH 7.4, ligand 2–20 μM. Here is the method:
Based on previous research on the volatiles of A. artemisiifolia, 26 standard chemical odors were selected to verify the binding characteristics of OcomOBP7 using a fluorescence binding assay (Table 2).
(§1) Fluorescence competition binding experiments were performed using an F-380 fluorescence spectrophotometer (Gangdong Technology, Tianjin, China), and the quartz cuvette was 1 cm wide. The excitation and emission slits were 10 nm, the sensitivity was 2 s, the emission wavelength range was 360–500 nm, the excitation wavelength was 337 nm, and the scanning speed was 1200 nm/min. The fluorescent probe, 1-NPN, was dissolved in a chromatographic methanol solution at a concentration of 1 mM. The target protein was diluted to 2 μM with 50 mM Tris-HCl (pH 7.4), and 1 mL of protein diluent was added to the cuvette. The 1-NPN fluorescent probe was added to the protein diluent to obtain a final concentration of 2–20 μM and was allowed to stand for 30 s after mixing. The maximum fluorescence value for each addition of 1-NPN was recorded, and three replicates were used. The 1-NPN fluorescent probe was added to the protein diluent at a final concentration of 2 μM, mixed well, and allowed to stand for 30 s. The maximum fluorescence intensity of 1-NPN was recorded. The odorant ligand was then added at a final concentration of 2–20 μM, and the maximum fluorescence value produced by the mixed solution was determined.
The dissociation constants Ki of OcomOBP7 and the fluorescent ligand compounds were calculated using the Scatchard equation. The formula is as follows: Ki = [IC50]/(1 + [1-NPN]/K1-NPN), where [1-NPN] represents the concentration of unbound 1-NPN, and K1-NPN is the binding constant of the OcomOBP7/1-NPN complex.

Assay [2] deals with OcomOBP7. Put plainly: Binding of fluorescent probe 1-NPN to OcomOBP7 (binding curve, Scatchard). Also noted: species or system Ophraella communa. The following applies: OcomOBP7 2 μM, 1-NPN 2–20 μM, pH 7.4; read-out: binding constant (Kd) of the protein and probe 1-NPN. As to the method: as §1
The dissociation constants Ki of OcomOBP7 and the fluorescent ligand compounds were calculated using the Scatchard equation. […]

Assay [3] deals with O. communa antennae. Also noted: method as in a previous experiment. The conditions noted are these: ref a previous experiment; cited from earlier work.
In assay [4] the test system is O. communa antennae. Put plainly: Electroantennography (EAG) after RNAi. Type of assay: in vivo, Ophraella communa. The conditions noted are these: odorant 10 μg/μL in n-hexane, 10 μL; for EAG response of O. communa antennae: after injection of dsRNA (dsOBP7), 48 h; for average EAG response of O. communa antennae: dsEGFP control group, 48 h after injection. As to the method:
dsRNA templates were synthesized by PCR using primers containing the T7 promoter sequence as templates. dsRNA was synthesized in vitro using a T7 RNAi Transcription Kit (Ambion Inc., Waltham, MA, USA) according to the manufacturer’s instructions. dsRNA was dissolved in DEPC water and its concentration determined using a Nanophotometer P330 (Implen, Germany). The quality of RNA was determined using 1% gel electrophoresis. Female and male adults with an initial emergence of <12 h were injected. A Nanoliter 2000 microinjector (WPI, Sarasota, FL, USA) was used to inject 1 ng of dsRNA into the pronotum of beetles. dsEGFP was used as a control. After injection, the beetles were kept in Petri dishes and fed fresh A. artemisiifolia leaves daily.
Based on the fluorescence binding experimental results, α-pinene, ocimene, and myrcene were used for the electrophysiological experiments. […] Therefore, the odorants in this experiment were dissolved in n-hexane at a final concentration of 10 μg/μL, with n-hexane alone serving as a blank control. Filter paper strips with 10 μL of odorant were placed in a Pasteur Pipette for EAG experiments. The head and end of one antenna of the O. communa adult were cut off with a blade 48 h after the injection of dsRNA. A glass electrode filled with KCl conductivity liquid was inserted into the incision of the head of the O. communa and then connected to the electroantennogram system. The antenna incision was connected to a glass electrode at the other end using a micromanipulator. Each odorant was stimulated for 0.2 s with an interval of more than 30 s. Each treatment consisted of more than 20 biological replicates. Finally, the response curve was recorded using the EAG2000 software.

Assay [5] deals with O. communa. Also noted: method as in previous experiment results (unpublished data). The conditions noted are these: ref previous experiment results (unpublished data); cited from earlier work.

With `C=C(C)C1CC=C(C)CC1` (racemic) [DL-Limonene], in assay [1], the Ki came to 2.84 ± 0.2 µM and the IC50 stood at 4.48 µM.

As to `c1ccc(Nc2cccc3ccccc23)cc1` [1-NPN], the Kd in assay [2] stood at 1.47 ± 0.2 µM.

As for `C=CC(=C)CC/C=C(\C)CCC=C(C)C` [(E)-β-farnesene], in assay [1], the inhibitory constant (Ki) was determined as 0.48 ± 0.04 µM and the IC50 stood at 0.76 µM. In assay [3], the “activation of antennal response via the EAG method” value is on record as “cannot activate the antennal response”.

On to `C=C(C)[C@H]1CC=C(C)CC1` [(R)-(+)-Dipentene], for which, in assay [1], the inhibition constant (Ki) is 2.22 ± 0.11 µM and the IC50 turned out to be 3.5 µM.

`CC(=O)OC1CC2CCC1(C)C2(C)C` (stereo not drawn) [Bornyl acetate]: in assay [1], the Ki is 20.37 ± 0.07 µM and the IC50 was found to be 32.2 µM.

Turning to `C=C1C2CCC(C2)C1(C)C` (stereo not drawn) [Camphene], in assay [1], the Ki was 9.85 ± 0.66 µM and the half-inhibitory concentration (IC50) was determined as 15.5 µM.

Consider `C=CC(=C)CCC=C(C)C` [Myrcene], for which, in assay [1], the Ki is 3.97 ± 0.85 µM and the IC50 amounted to 6.26 µM. For the same compound, in assay [4], the “EAG response of O. communa antennae” value is on record as 0.09 ± 0.01 and the “average EAG response of O. communa antennae” value (from here on “average EAG response”) came to 0.10 ± 0.01. The “attraction of the beetles” value in assay [5] is “significantly attract”.

On to `C=CC(C)=CCC=C(C)C` [Ocimene], for which, in assay [1], the inhibition constant Ki stood at 1.23 ± 0.11 µM and the IC50 was 1.94 µM. For the same compound, in assay [4], the “EAG response of O. communa antennae” value was determined as 0.14 ± 0.01 and the “average EAG response” value came to 0.19 ± 0.01. Further, in assay [5], the “attraction of the beetles” value was “significantly attract”.

For the compound `C=C1CCC2(C(C)C)CC12` (stereo not drawn) [Sabinene], in assay [1], the Ki worked out at 4.75 ± 0.14 µM and the half-inhibitory concentration (IC50) is 7.49 µM.

Turning to `CC1=CCC(C(C)C)=CC1` [Y-Terpinene], in assay [1], the Ki came out at 4.7 ± 0.32 µM and the IC50 stood at 7.42 µM.

On to `CCCCCCCC` [n-Octane], for which, in assay [1], the Ki is 0.67 ± 0.12 µM and the IC50 is 1.05 µM.

Consider `CC1=CCC2CC1C2(C)C` (stereo not drawn) [α-Pinene], for which, in assay [1], the Ki is 6.55 ± 0.05 µM and the IC50 stood at 10.3 µM. In assay [4], the “EAG response of O. communa antennae” value was 0.28 ± 0.02 and the “average EAG response” value was 0.36 ± 0.03. Moreover, in assay [5], the “attraction of the beetles” value was “significantly attract”.

`CC1=CC[C@H](C(C)C)C=C1` [α-phellandrene]: in assay [1], the Ki came to 2.91 ± 0.42 µM and the IC50 was found to be 4.59 µM.

`C=C1CCC2CC1C2(C)C` (stereo not drawn) [β-Pinene]: in assay [1], the Ki amounted to 10.9 ± 0.59 µM and the IC50 was determined as 17.2 µM.

Turning to (S)-(-)-Limonene, in assay [1], the Ki is 2.55 ± 0.4 µM and the IC50 came to 4.02 µM.
